{"source": "patent US7747395B2", "about": "“Method of inhibitor design and identification using a 3-D structure of human peptide deformylase” (Sloan-Kettering Institute for Cancer Research, priority 2007, dated 2010)", "origin": "cited, not measured here", "test_system": "drug resistant bacterial strains", "settings": "cited from earlier work", "data": [{"molecule": "CC(C)(C)[C@H](NC(=O)[C@H](CC1CCCC1)CN(O)C=O)C(=O)N1CCN(Cc2ccc3c(c2)OCO3)CC1", "note": "[BB-83698]", "values": [{"measurement": "antibacterial activity in vitro", "value": "broad spectrum activity in vitro against drug resistant bacterial strains"}]}]}
